Test results taken from patent US10889569B2, “Condensed ring group azacyclobutyl triazole derivative, preparation method therefor and use thereof in medicine” (Jiangsu Hengrui Medicine Co., Ltd., priority 2016, dated 2021).
One block for each compound: values may come before it.

Legend:
[1] = Brain permeability of rats (Kp-unbound); format: in vivo; details: both sexes, rat, not told, po; SD rats, 10 mg/kg intragastrically, 0.5 h after administration; read-out: Kp-unbound (blood-brain permeability index)
Experimental: The activity of the compounds of the present invention on the brain permeability of rats was determined by the following experimental method:
Four SD rats (half male and half female) were maintained in a 12 hours light/12 hours dark cycle, in a constant temperature of 24±3° C. and a humidity of 50-60%, and free access to food and water. The compounds were administered intragastrically to the rats after fasting overnight. The administration dosage was 10 mg/kg. The administration group was sacrificed after blood collection at 0.5 h to 2 h after administration (blood volume: 0.5 ml). The blood sample was stored in heparinized tubes, and centrifuged for 10 minutes at 3500 rpm to separate the plasma, which was marked as plasma 1 and stored at […]. The animal was decapitated after sacrificing, and the brain tissue was collected. The residual blood in the brain tissue was sucked with a filter paper, which was marked as brain tissue 1, and stored at 0° C. ten minutes later. Another three animals were treated by the same method as that of administration group to obtain blank plasma and brain tissue 2.
The drug compounds were diluted to 50 mM with DMSO to obtain a stock solution I. An appropriate amount of stock solution I was diluted with methanol to obtain a diluted stock solution II (200 μM). 10 μl of stock solution II was moved to a 1.5 ml Eppendorf tube, and then added with 990 μl of blank plasma, and mixed well to obtain 2 μM of plasma sample 2 (concentration of DMSO≤0.2%), which was used for the determination of plasma protein binding rate at this concentration. […]
The equilibrium dialysis tube of RED Device Inserts was inserted into a 96-well plate. […] The chromatographic peak area ratios of the total drug (plasma chamber) and the free drug (buffer chamber) to the internal standard were determined directly by the LC/MS/MS method established above respectively, and the free percent (fu plasma %) was calculated.
Brain tissue protein binding equilibrium dialysis process: the blank brain tissue 2 was formulated into a blank brain homogenate with PBS (pH 7.4) according to a dilution factor of 11, and added with compound to formulate a 2 μM brain homogenate. Other procedures were the same with that of plasma protein binding, the chromatographic peak area ratios of the total drug (brain homo chamber) and the free drug (buffer chamber) to the internal standard were determined by the established LC/MS/MS method respectively, and the free percent (fu brain hom %) was calculated.
1) The drug concentrations in plasma 1 and brain tissue 1 of rats 0.5 h after administration were determined by the established LC/MS/MS method respectively, which were the total concentration (Ctotal, p and Ctotal, b); […]

human OTR = human OTR (Homo sapiens, UniProt P30559); test: Inhibition activity on human OTR (Fluo-4 calcium assay, HEK293/human OTR stably transfected cells); format: cell-based; details: oxytocin 3 nM
How it was run: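 HEK293 cells stably expressing human OTR, loaded with Fluo-4 for 30 min at 37 °C, were preincubated 10 min at room temperature with compound (stocks 10^1–10^6 nM). Oxytocin (3 nM as added) then triggered calcium signal, read immediately at 494/516; IC50 fitted from fluorescence versus concentration.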

[2] = Pharmacokinetics assay in rats after intragastrical administration; format: in vivo, SD rats; details: Sprague-Dawley, rat, plasma, po, 30 mg/kg, intragastric, male rats
Experimental: Male SD rats were used as test animals. The drug concentration in plasma at different time points was determined by LC/MS/MS method after intragastrical administration of the compounds of Examples 2, 17, 34, 37, 38, 39 and 43 to rats. The pharmacokinetic behavior of the compounds of the present invention was studied and evaluated in rats.
Twenty-one healthy adult male Sprague-Dawley (SD) rats were purchased from Shanghai Jiesijie Laboratory Animal Co., LTD, with Certificate No.: SCXK (Shanghai) 2013-0006, and equally divided into 7 groups (3 rats per group).
A certain amount of the test compound was weighed, and added with 2.5% by volume of DMSO and 97.5% by volume of 10% solutol HS-15 to formulate a […] colorless, clear and transparent solution.
After an overnight fast, SD rats were administered intragastrically the test compounds at an administration dosage of 30.0 mg/kg and an administration volume of 10.0 mL/kg.
The rats were intragastrically administered the compounds of Examples 2, 17, 34, 37, 38, 39 and 43. 0.2 mL of blood was taken from the orbital sinus before administration and at 0.5, 1.0, 2.0, 4.0, 6.0, 8.0, 11.0 and 24.0 hours after administration. The samples were stored in heparinized tubes, and centrifuged for 10 minutes at 4° C. at 3500 rpm to separate the plasma. The plasma samples were stored at −20° C. The rats were fed 2 hours after administration.
The content of the test compounds in the plasma of rats after intragastrical administration of the test compounds at different concentrations was determined: 50 μL of rat plasma at each time after administration was taken, added with 50 μL of the internal standard solution of camptothecin (100 ng/mL) and 150 μL of acetonitrile, vortex-mixed for 5 minutes, and centrifuged for 10 minutes (4000 rpm). 3 μL of the supernatant was taken from the plasma samples for LC/MS/MS analysis.

oxytocin receptor [3] = target: T1, oxytocin receptor (Homo sapiens (Human), UniProt P30559); details: orally 400 mg or 800 mg, patient with prospermia, phase II; cited from earlier work
oxytocin receptor [4] = target: oxytocin receptor (Rattus norvegicus (Rat), UniProt P70536); details: intraventricular and intrathecal injection; cited from earlier work
oxytocin receptor [5] = target: T1, oxytocin receptor; details: cited from earlier work

T1 sequence (P30559 whole entry): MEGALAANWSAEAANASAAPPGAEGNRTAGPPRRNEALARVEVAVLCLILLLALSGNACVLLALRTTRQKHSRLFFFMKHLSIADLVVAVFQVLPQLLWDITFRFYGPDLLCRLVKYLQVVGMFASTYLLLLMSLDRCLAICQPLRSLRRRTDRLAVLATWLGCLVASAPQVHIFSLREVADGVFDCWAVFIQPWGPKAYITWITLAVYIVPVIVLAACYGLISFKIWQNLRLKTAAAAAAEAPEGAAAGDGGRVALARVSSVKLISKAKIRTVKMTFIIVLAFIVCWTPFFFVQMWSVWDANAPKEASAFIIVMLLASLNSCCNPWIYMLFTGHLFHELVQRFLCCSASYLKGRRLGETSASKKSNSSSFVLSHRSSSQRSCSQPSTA
oxytocin receptor (Rattus norvegicus (Rat), UniProt P70536), sequence (P70536 whole entry): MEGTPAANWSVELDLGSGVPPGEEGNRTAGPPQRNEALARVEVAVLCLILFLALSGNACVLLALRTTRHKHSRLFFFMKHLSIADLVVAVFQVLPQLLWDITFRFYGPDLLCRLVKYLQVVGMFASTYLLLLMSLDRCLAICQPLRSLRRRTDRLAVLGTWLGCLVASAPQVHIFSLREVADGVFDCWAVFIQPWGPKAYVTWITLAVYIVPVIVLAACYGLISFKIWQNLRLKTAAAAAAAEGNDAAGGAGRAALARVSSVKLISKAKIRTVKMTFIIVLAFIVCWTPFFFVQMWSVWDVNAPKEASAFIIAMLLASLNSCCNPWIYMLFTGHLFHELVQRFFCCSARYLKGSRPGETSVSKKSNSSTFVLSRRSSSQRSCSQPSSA

Kp at 0.5 h [1]: 0.064
SMILES: COCc1nnc(N2CC(Oc3ccc(F)cc3Cl)C2)n1-c1ccc(OC)nc1 [5-(3-(3-(2-Chloro-4-fluorophenoxy)azetidin-1-yl)-5-(methoxymethyl)-4H-1,2,4-triazol-4-yl)-2-methoxypyridine, reference compound]

IC50 (human OTR): 2 nM | Kp at 0.5 h [1]: 0.175 | Vd/F ([2]; read-out: Apparent distribution volume Vz/F): 27.8 ± 22.8 L/kg | AUC ([2]; read-out: Area under curve AUC): 5630 ± 3010 ng·h/mL | CL/F ([2]; read-out: Clearance CLz/F): 104 ± 44 mL/min/kg | half-life ([2]; read-out: Half-life T1/2 (converted)): 2.83 ± 1.9 h | Cmax ([2]; read-out: Plasma concentration Cmax): 1060 ± 270 ng/mL | MRT ([2]; read-out: Residence time MRT): 4.19 ± 1.25 h
SMILES: COc1ccc(-n2c(COC(F)F)nnc2N2CC(c3cccc4cc(F)ccc34)C2)cn1 [Example 38, 5-(3-((Difluoromethoxy)methyl)-5-(3-(6-fluoronaphthalen-1-yl)azetidin-1-yl)-4H-1,2,4-triazol-4-yl)-2-methoxypyridine]

SMILES: COCc1nnc(N2CC(Oc3ccc(F)cc3Cl)C2)n1-c1ccc(OC)nc1 [IX-01]
Vaginal ejaculation latency (oxytocin receptor [3]): can significantly prolong the vaginal ejaculation latency of the patient

SMILES: CC[C@H](C)[C@@H]1C(=O)N[C@H](C2Cc3ccccc3C2)C(=O)N1[C@@H](C(=O)N1CCOCC1)c1ccc(C)nc1C [GSK557296]
Ejaculation behavior of rats (oxytocin receptor [4]): can effectively inhibit the ejaculation behavior of rats only when being administered at specific central sites | Efficacy after oral administration in phase II clinical trials (oxytocin receptor [5]): did not show corresponding efficacy
